Source: paper PMC3694885, “Activity of Bradykinin B2 Receptor Is Regulated by Long-Chain Polyunsaturated Fatty Acids” (PLoS ONE, 2013)

Biological target: T1, bradykinin B2 receptor (B2R) (Homo sapiens, UniProt P30411)
T1 construct: gene BDKRB2; B2R transfected in HEK293 cells
T1 sequence (P30411 1-391): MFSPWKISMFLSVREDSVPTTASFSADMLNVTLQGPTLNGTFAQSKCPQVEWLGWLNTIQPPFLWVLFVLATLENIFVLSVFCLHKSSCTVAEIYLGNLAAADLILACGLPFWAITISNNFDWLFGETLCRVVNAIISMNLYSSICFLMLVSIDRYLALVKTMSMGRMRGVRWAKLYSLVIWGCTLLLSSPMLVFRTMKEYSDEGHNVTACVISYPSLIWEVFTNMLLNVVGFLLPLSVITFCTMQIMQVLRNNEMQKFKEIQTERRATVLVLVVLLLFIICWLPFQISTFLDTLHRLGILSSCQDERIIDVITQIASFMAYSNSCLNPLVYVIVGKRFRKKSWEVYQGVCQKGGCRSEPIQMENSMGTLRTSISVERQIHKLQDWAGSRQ
Assay: B2R-dependent ERK phosphorylation in transfected HEK293, blocked by the B2R antagonist HOE-140
Type: cell-based

## CC/C=C\C/C=C\C/C=C\C/C=C\C/C=C\C/C=C\CCC(=O)O [DHA, docosahexaenoic acid]
  B2R-dependent ERK phosphorylation in transfected HEK293, blocked by the B2R anta: EPA or DHA dependent ERK phosphorylation was inhibited by the selective B2R antagonist.
